What was measured:
Assay in all cases: RPA phosphoprotein level after 24 h storage of tumor needle samples in preservatives
Conditions in all cases: 24 h in preservative at 4° C., relative normalized RPA intensity
p38 T180/182 = system: p38 T180/182
Procedure: (§1) The RPA format, originated by the present inventors and collaborators (see, e.g., Paweletz et al. (2001) Oncogene 20, 1981-1989), immobilizes an individual test sample in a miniature dilution curve such that an array contains hundreds of different patient samples, treatments, or time points. In the RPA format, each array is incubated with one detection protein (e.g. anti-peptide antibody), and a single analyte endpoint is measured and directly compared across multiple samples. Briefly, the lysates are printed on glass backed nitrocellulose array slides (FAST Slides Whatman, Florham Park, N.J. or ONCYTE slides Grace BioLabs, Bend, Oreg.) using a robotic array printing device (GMS 417 arrayer (Affymetrix, Santa Clara, Calif. or Aushon 2470, Aushon Biosystems, Burlington, Mass. equipped with 125-500 μm pins). Each lysate is printed in a dilution curve representing neat, 1:2, 1:4, 1:8, 1:16 and negative control dilutions. The slides are stored with desiccant (Drierite, W. A. Hammond, Xenia, Ohio) at −20° C. prior to immunostaining.
(§2) Immunostaining is performed on an automated slide stainer per manufacturer's instructions (Autostainer CSA kit, Dako, Carpinteria, Calif.). Each slide is incubated with a single primary antibody at room temperature for 30 minutes. Polyclonal primary antibodies can be, e.g.: GSK3α/β Tyr279/216 (Invitrogen-Biosource, Carlsbad, Calif.), BCL-2, HIF-1α (BD, Franklin Lakes, N.J.), 4EBP1, FKHR ser256, eIF4E, eIF4E ser209, eIF4G, eIF4G ser1108, IGFR-β, IRS-1, IRS-2, IRS-1 ser612, SGK, Bak, Bax, BAD, BAD ser112, BAD ser136, BAD ser155, B-Raf, mTOR, mTOR ser2448, p70S6 Thr389, p70S6 kinase, p70S6 ser371, S6 kinase ser240/244, Akt, Akt ser473, Akt Thr308, 4EBP1 ser65, 4EBP1 ser70, and 4EBP1 Thr37/46 (Cell Signaling Technology, Danvers, Mass.). A negative control slide is incubated with antibody diluent. Secondary antibody can be goat anti-rabbit IgG H+L (1:5000) (Vector Labs, Burlingame, Calif.).
(§3) Each array is scanned, spot intensity analyzed, data normalized, and a standardized, single data value can be generated for each sample on the array (Image Quant v5.2, GE Healthcare, Piscataway, N.J.) or MicroVigene v2.8, Vigene Tech, Billerica, Mass.). Spot intensity is integrated over a fixed area. Local area background intensity is calculated for each spot with the unprinted adjacent slide background. […] The Ward method for two-way hierarchical clustering can be performed using JMP v5.0 (SAS Institute, Cary N.C.). Wilcoxon two-sample rank sum test can be used to compare values between two groups. P values less than 0.05 are considered significant. When one cannot assume a normal distribution of the variables, non-parametric methods are used. Kaplan-Meier (log-rank) survival estimates for univariate survival analysis can be used.
(§4) Briefly, tumor tissues from gastrinoma/liver, mesothelioma and parathyroid tumors were sampled by five needle passes and placed into the preservatives listed in Table 5. […] Immediate lysis and denaturation of the cellular proteins were accomplished by standard Pierce Tissue Protein Extraction Buffer (T-PER), with additional SDS, denaturing reagents, and detergents. The cell samples were stored 24 h in the listed preservatives at 4° C. and then the listed phosphoprotein endpoints were measured. […] Some values dropped to zero while others are markedly elevated compared to the freshly lysed cell baseline. […] They were unable to stabilize the phosphorylation state of key signal proteins over a storage period of 24 hours, which is a typical time delay for cell or tissue shipment. Numbers in the table are relative normalized intensity values using the RPA technology described herein.

IRS-1 ser612 = system: IRS-1 ser612
Procedure: as §1, §2, §3, §4

AKT ser473 = system: AKT ser473
Procedure: as §1, §2, §3, §4

ERK T202/Y204 = system: ERK T202/Y204
Procedure: as §1, §2, §3, §4

CC3 Asp175 = system: CC3 Asp175
Procedure: as §1, §2, §3, §4

GSK3ab ser21/9 = system: GSK3ab ser21/9
Procedure: as §1, §2, §3, §4

EGFR Y1148 = system: EGFR Y1148
Procedure: as §1, §2, §3, §4

CREB ser133 = system: CREB ser133
Procedure: as §1, §2, §3, §4

AKT Thr308 = system: AKT Thr308
Procedure: as §1, §2, §3, §4

IKappa-Ba ser32 = system: IKappa-Ba ser32
Procedure: as §1, §2, §3, §4

[1] = Gastrinoma/liver tumor, Lysis Buffer = frozen immediately after lysis
[2] = Parathyroid tumor, Lysis Buffer = frozen immediately after lysis

| Compound | p38 T180/182 Normalized data (p38 T180/182; [1]) | p38 T180/182 Normalized data (p38 T180/182; Mesothelioma) | p38 T180/182 Normalized data (p38 T180/182; [2]) | IRS-1 ser612 Normalized data (IRS-1 ser612; [1]) | IRS-1 ser612 Normalized data (IRS-1 ser612; Mesothelioma) | IRS-1 ser612 Normalized data (IRS-1 ser612; [2]) | AKT ser473 Normalized data (AKT ser473; [1]) | AKT ser473 Normalized data (AKT ser473; Mesothelioma) | AKT ser473 Normalized data (AKT ser473; [2]) | ERK T202/Y204 Normalized data (ERK T202/Y204; [1]) | ERK T202/Y204 Normalized data (ERK T202/Y204; Mesothelioma) | ERK T202/Y204 Normalized data (ERK T202/Y204; [2]) | CC3 Asp175 Normalized data (CC3 Asp175; [1]) | CC3 Asp175 Normalized data (CC3 Asp175; Mesothelioma) | CC3 Asp175 Normalized data (CC3 Asp175; [2]) | GSK3ab ser21/9 Normalized data (GSK3ab ser21/9; [1]) | GSK3ab ser21/9 Normalized data (GSK3ab ser21/9; Mesothelioma) | GSK3ab ser21/9 Normalized data (GSK3ab ser21/9; [2]) | EGFR Y1148 Normalized data (EGFR Y1148; [1]) | EGFR Y1148 Normalized data (EGFR Y1148; Mesothelioma) | other results |
| --- | --- | --- | --- | --- | --- | --- | --- | --- | --- | --- | --- | --- | --- | --- | --- | --- | --- | --- | --- | --- | --- |
| [Cl-].[Na+] [0.9% saline, sodium chloride] | 33.41 | 26.34 | 4.79 | 4.82 | 2.34 | 0.00 | 3.76 | 9.78 | 1.84 | 10.75 | 7.72 | 0.00 | 14.57 | 10.85 | 5.46 | 12.25 | 9.46 | 0.00 | 39.76 | 24.62 | EGFR Y1148 Normalized data (EGFR Y1148; [2]): 6.57; CREBser133 Normalized data (CREB ser133; [1]): 24.09; CREBser133 Normalized data (CREB ser133; Mesothelioma): 17.20; CREBser133 Normalized data (CREB ser133; [2]): 5.35; AKT Thr308 Normalized data (AKT Thr308; [1]): 9.73; AKT Thr308 Normalized data (AKT Thr308; Mesothelioma): 8.97; AKT Thr308 Normalized data (AKT Thr308; [2]): 0.00; IKappa-Ba ser32 Normalized data (IKappa-Ba ser32; [1]): 29.64; IKappa-Ba ser32 Normalized data (IKappa-Ba ser32; Mesothelioma): 16.87; IKappa-Ba ser32 Normalized data (IKappa-Ba ser32; [2]): 1.87 |
| OC[C@H]1O[C@H](O[C@H]2O[C@H](CO)[C@@H](O)[C@H](O)[C@H]2O)[C@H](O)[C@@H](O)[C@@H]1O [15% trehalose, Trehalose] | 36.95 | 7.39 | 30.53 | 25.51 | 0.00 | 0.05 | 0.00 | 7.86 | 0.26 | 17.01 | 0.00 | 9.34 | 11.19 | 6.82 | 7.76 | 32.18 | 7.80 | 10.36 | 95.78 | 21.03 | EGFR Y1148 Normalized data (EGFR Y1148; [2]): 26.55; CREBser133 Normalized data (CREB ser133; [1]): 55.11; CREBser133 Normalized data (CREB ser133; Mesothelioma): 10.01; CREBser133 Normalized data (CREB ser133; [2]): 21.50; AKT Thr308 Normalized data (AKT Thr308; [1]): 19.93; AKT Thr308 Normalized data (AKT Thr308; Mesothelioma): 0.95; AKT Thr308 Normalized data (AKT Thr308; [2]): 5.38; IKappa-Ba ser32 Normalized data (IKappa-Ba ser32; [1]): 32.99; IKappa-Ba ser32 Normalized data (IKappa-Ba ser32; Mesothelioma): 13.29; IKappa-Ba ser32 Normalized data (IKappa-Ba ser32; [2]): 24.12 |
| OC[C@H]1O[C@@](CO)(O[C@H]2O[C@H](CO)[C@@H](O)[C@H](O)[C@H]2O)[C@@H](O)[C@@H]1O [30% sucrose, sucrose] | 63.91 | 28.71 | 1.15 | 31.46 | 1.84 | 0.00 | 16.16 | 19.36 | 3.27 | 48.68 | 15.67 | 1.15 | 61.02 | 17.90 | 2.23 | 37.27 | 3.12 | 0.00 | 65.97 | 22.84 | EGFR Y1148 Normalized data (EGFR Y1148; [2]): 6.14; CREBser133 Normalized data (CREB ser133; [1]): 69.03; CREBser133 Normalized data (CREB ser133; Mesothelioma): 22.82; CREBser133 Normalized data (CREB ser133; [2]): 2.09; AKT Thr308 Normalized data (AKT Thr308; [1]): 42.04; AKT Thr308 Normalized data (AKT Thr308; Mesothelioma): 12.13; AKT Thr308 Normalized data (AKT Thr308; [2]): 0.00; IKappa-Ba ser32 Normalized data (IKappa-Ba ser32; [1]): 69.82; IKappa-Ba ser32 Normalized data (IKappa-Ba ser32; Mesothelioma): 0.00; IKappa-Ba ser32 Normalized data (IKappa-Ba ser32; [2]): 0.33 |
| CC(C)=O [Acetone] | 77.58 | 87.57 | 72.96 | 33.10 | 10.72 | 40.55 | 4.56 | 27.53 | 13.12 | 46.15 | 55.31 | 77.97 | 38.23 | 26.75 | 29.46 | 35.47 | 55.72 | 123.00 | 65.10 | 49.89 | EGFR Y1148 Normalized data (EGFR Y1148; [2]): 81.36; CREBser133 Normalized data (CREB ser133; [1]): 91.79; CREBser133 Normalized data (CREB ser133; Mesothelioma): 83.10; CREBser133 Normalized data (CREB ser133; [2]): 83.74; AKT Thr308 Normalized data (AKT Thr308; [1]): 25.45; AKT Thr308 Normalized data (AKT Thr308; Mesothelioma): 30.05; AKT Thr308 Normalized data (AKT Thr308; [2]): 21.93; IKappa-Ba ser32 Normalized data (IKappa-Ba ser32; [1]): 48.91; IKappa-Ba ser32 Normalized data (IKappa-Ba ser32; Mesothelioma): 36.08; IKappa-Ba ser32 Normalized data (IKappa-Ba ser32; [2]): 49.65 |
